Values quoted from earlier work, collected in patent US8545863B2, “Insecticides for agricultural and horticultural crops” (Globachem, priority 2009, dated 2013).

Test system: apple scab (V. inequalis)

[Ca+2].[OH-].[OH-] [calcium hydroxide]
concentration preventing germination of spores and killing the spore sacks (asci) (apple scab (V. inequalis)): 4.3 g/L

O=C([O-])O.[K+] [Potassium bicarbonate, potassium bicarbonate]
decreasing fruit and leaf scab (apple scab): effective
